Experimental data published in patent US5846545A, “Targeted delivery of cyclopropylbenzindole-containing cytotoxic drugs” (Immunogen, Inc., priority 1995, dated 1998).

Assays:
[1] = system: human small cell lung cancer cell line SW2; test: In vitro cytotoxicity to SW2 cells, 24 h exposure, growth back-extrapolation assay; type: cell-based; settings: 24 h exposure to the drug, read-out: IC50, free drug, SW2 cells
Procedure: Disulfide-containing and mercapto-containing analogues and derivatives of CC-1065 of the invention can be evaluated for their ability to suppress proliferation of various unwanted cell lines in vitro. For example, cell lines such as the human epidermoid carcinoma line KB, the human breast tumor line SKBR3, and the Burkitt's lymphoma line Namalwa can easily be used for the assessment of cytotoxicity of these compounds. Cells to be evaluated can be exposed to the compounds for 24 hours and the surviving fractions of cells measured in direct assays by known methods. IC50 values can then be calculated from the results of the assays.
Cytotoxicity of the analogues and derivatives of CC-1065 and their conjugates with cell binding agents to non-adherent cell lines such as Namalwa and SW2 can be measured by back-extrapolation of cell proliferation curves as described in Goldmacher et al, 135 J. Immunol. […] Cytotoxicity of these compounds to adherent cell lines such as A-375 and SCaBER can be determined by clonogenic assays as described in Goldmacher et al, 102 J. Cell Biol. 1312-1319 (1986). […]
In vitro cytotoxicity of N901-SS-Drug 7. The in vitro cytotoxicity of a disulfide-linked conjugate of the mono-indolyl CPI derivative 7 with the antibody N901, containing on the average 3.3 drug molecules per antibody molecule, was measured on antigen positive SW2 cells and antigen negative Namalwa cells. […]

[2] = in vitro; cited from earlier work
[3] = single i.v. dose of 12.5 μg/kg; cited from earlier work
P388 leukemia = settings: cited from earlier work

| Compound | IC50 [1] [nM] | fold more cytotoxic than methotrexate, daunorubicin and vincristine [2] [fold] | delayed hepatotoxicity leading to death, time of death [3] [days] | treated mice surviving beyond 30 days (P388 leukemia; 0.05 mg/kg i.p. on days 1, 5 and 9) | increase in life span over untreated controls (P388 leukemia; optimal dose 0.05 mg/kg i.p. on days 1, 5 and 9) [%] |
| --- | --- | --- | --- | --- | --- |
| COc1c(O)c2c(c3cc(C(=O)N4CCc5c4c(O)c(OC)c4[nH]c(C(=O)N6CC7CC78C6=CC(=O)c6[nH]cc(C)c68)cc54)[nH]c13)CCN2C(N)=O (centres unmarked) [CC-1065] | 0.2 | 100 to 1000 | 50 |  |  |
| Cc1c[nH]c2c1[C@@]13C[C@@H]1CN(C(=O)c1cc4cc(NC(=O)c5cc6ccccc6o5)ccc4[nH]1)C3=CC2=O [U-73975] |  |  |  | 1 out of 6 | 170 |
